In PubChem BioAssay AID192 (DTP/NCI, 2004):
Where “and” joins values, the source holds several entries; their conditions need not be identical. Equal values may be shown once. Toxic doses and inconclusive results are not listed. How the source made its calls: active means survival T/C of 150% or more; inactive means T/C below 125% in these data.

System: BDF1 mice, B16 melanoma ip, median survival T/C
Test: NCI In Vivo Anticancer Drug Screen. Data for tumor model B16 Melanoma (intraperitoneal) in B6D2F1 (BDF1) mice
Conditions: endpoint: median survival time, higher = longer survival
Procedure, shortened: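 Mice with transplantable tumors; drug vs vehicle groups; endpoint survival or tumor size; value = T/C.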

[1] = dose: 50.0 mg/kg/injection, schedule: Q01DX009 (ip), vehicle: Klucel (hydroxypropylcellulose) (HPC)
[2] = dose: 100.0 mg/kg/injection, schedule: Q01DX009 (ip), vehicle: Klucel (hydroxypropylcellulose) (HPC)
[3] = dose: 200.0 mg/kg/injection, schedule: Q01DX009 (ip), vehicle: Klucel (hydroxypropylcellulose) (HPC)
[4] = dose: 25.0 mg/kg/injection, schedule: Q01DX009 (ip), vehicle: Klucel (hydroxypropylcellulose) (HPC)

Measured: T/C

C=C1CCN(c2ccc([N+](=O)[O-])cc2)C1=O
inactive: dose: 4.0 mg/kg/injection, schedule: Q01DX009 (ip), vehicle: saline + alcohol 97 % of control | dose: 8.0 mg/kg/injection, schedule: Q01DX009 (ip), vehicle: saline + alcohol 107 % of control | dose: 16.0 mg/kg/injection, schedule: Q01DX009 (ip), vehicle: saline + alcohol 98 % of control | dose: 32.0 mg/kg/injection, schedule: Q01DX009 (ip), vehicle: saline + alcohol 89 % of control | dose: 64.0 mg/kg/injection, schedule: Q01DX009 (ip), vehicle: saline + alcohol 95 % of control

CC1(O)Nc2nc3c(ncn3C3OC(CO)C(O)C3O)c(=O)n2C1O (configuration not stated)
inactive: dose: 12.5 mg/kg/injection, schedule: Q01DX009 (ip), vehicle: water 96 % of control | dose: 25.0 mg/kg/injection, schedule: Q01DX009 (ip), vehicle: water 103 % of control | dose: 50.0 mg/kg/injection, schedule: Q01DX009 (ip), vehicle: water 101 % of control | dose: 100.0 mg/kg/injection, schedule: Q01DX009 (ip), vehicle: water 100 % of control | dose: 200.0 mg/kg/injection, schedule: Q01DX009 (ip), vehicle: water 97 % of control | dose: 400.0 mg/kg/injection, schedule: Q01DX009 (ip), vehicle: water 95 % of control

COc1cc(C(=O)CO)cc(OC)c1OC(C)=O
inactive: dose: 100.0 mg/kg/injection, schedule: Q04DX003 (ip), vehicle: saline with Tween-80 95 % of control | dose: 200.0 mg/kg/injection, schedule: Q04DX003 (ip), vehicle: saline with Tween-80 87 % of control

COc1cc2c[n+](C)c3c(c2cc1OC)Cc1cc2c(cc1-3)OCO2
inactive: dose: 100.0 mg/kg/injection, schedule: Q01DX009 (ip), vehicle: saline with Tween-80 120 % of control

Cc1c(CNc2ccc(C(=O)NC(CC(=O)O)CC(=O)O)cc2)ccc2nc(N)nc(N)c12
inactive: dose: 0.05 mg/kg/injection, schedule: Q01DX009 (ip), vehicle: saline 111 % of control | dose: 0.1 mg/kg/injection, schedule: Q01DX009 (ip), vehicle: saline 111 % of control | dose: 0.12 mg/kg/injection, schedule: Q01DX009 (ip), vehicle: saline with Tween-80 102 % of control | dose: 0.2 mg/kg/injection, schedule: Q01DX009 (ip), vehicle: saline 116 % of control | dose: 0.25 mg/kg/injection, schedule: Q01DX009 (ip), vehicle: saline with Tween-80 91 % of control | dose: 0.37 mg/kg/injection, schedule: Q01DX009 (ip), vehicle: saline 100 % of control

C=C(C)C(=O)Nc1c(C)cccc1C
inactive: [1] 102 % of control | [2] 107 % of control | [3] 108 % of control

CC[n+]1ccc(Nc2ccc(/C=C/c3ccc4cc(Nc5cc[n+](CC)cc5)ccc4[n+]3CC)cc2)cc1
inactive: dose: 2.5 mg/kg/injection, schedule: Q01DX009 (ip), vehicle: saline 117 % of control | dose: 5.0 mg/kg/injection, schedule: Q01DX009 (ip), vehicle: saline 109 % of control | dose: 10.0 mg/kg/injection, schedule: Q01DX009 (ip), vehicle: saline 86 % of control

Cc1nn(-c2ccccc2)c(N)c1C#N
inactive: [4] 100 % of control | [1] 93 % of control | [2] 103 % of control

CNC(=S)N/N=C(/C)CCC/C(C)=N/NC(=S)NC
inactive: dose: 6.25 mg/kg/injection, schedule: Q01DX009 (ip), vehicle: saline with Tween-80 94 % of control | dose: 12.5 mg/kg/injection, schedule: Q01DX009 (ip), vehicle: saline with Tween-80 94 % of control | dose: 25.0 mg/kg/injection, schedule: Q01DX009 (ip), vehicle: saline with Tween-80 97 % of control

CCCC1(C)COB(c2ccc(C)cc2)OC1
inactive: [4] 93 % of control | [1] 90 % of control | [2] 97 % of control | [3] 86 % of control | dose: 400.0 mg/kg/injection, schedule: Q01DX009 (ip), vehicle: Klucel (hydroxypropylcellulose) (HPC) 90 % of control

[N-]=[N+]=C1N=CN=C1c1ncn[nH]1
inactive: dose: 3.12 mg/kg/injection, schedule: Q01DX009 (ip), vehicle: carboxymethylcellulose (CMC) 107 % of control | dose: 6.25 mg/kg/injection, schedule: Q01DX009 (ip), vehicle: carboxymethylcellulose (CMC) 119 % of control

Nc1nc(-c2ccccc2N=NN2CCCC2)nc2ccccc12
inactive: [4] 95 % of control | [1] 94 % of control

C=C1C(=O)OC2/C=C(\C)CC/C=C(/C=O)C(OC(=O)C(C)C)C(O)C12 (configuration not stated)
inactive: dose: 1.0 mg/kg/injection, schedule: Q01DX009 (ip), vehicle: saline with Tween-80 97 % of control | dose: 2.0 mg/kg/injection, schedule: Q01DX009 (ip), vehicle: saline with Tween-80 89 % of control and 97 % of control | dose: 4.0 mg/kg/injection, schedule: Q01DX009 (ip), vehicle: saline with Tween-80 100 % of control and 103 % of control | dose: 8.0 mg/kg/injection, schedule: Q01DX009 (ip), vehicle: saline with Tween-80 100 % of control

CC1(C)C2CCC1C(CO)C2 (configuration not stated)
inactive: [1] 100 % of control | [2] 103 % of control | [3] 90 % of control

CC(=O)NC(CCC(=O)C=[N+]=N)C(=O)O (configuration not stated)
inactive: dose: 0.01 mg/kg/injection, schedule: Q01DX009 (ip), vehicle: water 113 % of control | dose: 0.05 mg/kg/injection, schedule: Q01DX009 (ip), vehicle: water 102 % of control | dose: 0.1 mg/kg/injection, schedule: Q01DX009 (ip), vehicle: other 106 % of control | dose: 0.1 mg/kg/injection, schedule: Q01DX009 (ip), vehicle: water 86 % of control | dose: 0.2 mg/kg/injection, schedule: Q01DX009 (ip), vehicle: other 90 % of control | dose: 10.0 mg/kg/injection, schedule: Q04DX003 (ip), vehicle: other 109 % of control | dose: 15.0 mg/kg/injection, schedule: Q04DX003 (ip), vehicle: water 123 % of control | dose: 20.0 mg/kg/injection, schedule: Q04DX003 (ip), vehicle: other 100 % of control | dose: 30.0 mg/kg/injection, schedule: Q04DX003 (ip), vehicle: water 121 % of control | dose: 40.0 mg/kg/injection, schedule: Q04DX003 (ip), vehicle: other 106 % of control | dose: 60.0 mg/kg/injection, schedule: Q04DX003 (ip), vehicle: water 118 % of control

Cc1ccc(NS(=O)(=O)c2ccccc2)c(C)c1
inactive: dose: 75.0 mg/kg/injection, schedule: Q01DX009 (ip), vehicle: Klucel (hydroxypropylcellulose) (HPC) 86 % of control | dose: 150.0 mg/kg/injection, schedule: Q01DX009 (ip), vehicle: Klucel (hydroxypropylcellulose) (HPC) 87 % of control | dose: 300.0 mg/kg/injection, schedule: Q01DX009 (ip), vehicle: Klucel (hydroxypropylcellulose) (HPC) 92 % of control

O=C(O)C(O)C(O)C(=O)O.O=C(O)C(O)C(O)C(=O)O.[O]=[V].[O]=[V] (configuration not stated)
inactive: dose: 12.5 mg/kg/injection, schedule: Q01DX009 (ip), vehicle: saline 94 % of control | dose: 12.5 mg/kg/injection, schedule: Q04DX003 (ip), vehicle: saline 100 % of control | dose: 25.0 mg/kg/injection, schedule: Q01DX009 (ip), vehicle: saline 87 % of control | dose: 25.0 mg/kg/injection, schedule: Q04DX003 (ip), vehicle: saline 100 % of control | dose: 50.0 mg/kg/injection, schedule: Q04DX003 (ip), vehicle: saline 86 % of control
